For one series, the target named is human BACE1 (Homo sapiens, UniProt P56817). The series is described as follows: Fluorescent kinetic assay: Evaluation of BACE-1 Binding Affinity of Test Compounds. In kind it is biochemical. To be noted: 10 nM enzyme, 25 μM substrate WABC-6, 50 mM Na-Acetate pH 4.5, room temperature. The method, boiled down: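 Run with 10 nM human BACE1 and 25 μM WABC-6 FRET peptide in 50 mM Na-acetate pH 4.5, 0.05% CHAPS, 25% PBS at room temperature. Fluorescence (ex 320/em 420 nm) was read every 40 sec for 30 min, and initial cleavage rates were taken from linear slopes across ≥10 inhibitor concentrations.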
Chain of human BACE1 (P56817 46-501): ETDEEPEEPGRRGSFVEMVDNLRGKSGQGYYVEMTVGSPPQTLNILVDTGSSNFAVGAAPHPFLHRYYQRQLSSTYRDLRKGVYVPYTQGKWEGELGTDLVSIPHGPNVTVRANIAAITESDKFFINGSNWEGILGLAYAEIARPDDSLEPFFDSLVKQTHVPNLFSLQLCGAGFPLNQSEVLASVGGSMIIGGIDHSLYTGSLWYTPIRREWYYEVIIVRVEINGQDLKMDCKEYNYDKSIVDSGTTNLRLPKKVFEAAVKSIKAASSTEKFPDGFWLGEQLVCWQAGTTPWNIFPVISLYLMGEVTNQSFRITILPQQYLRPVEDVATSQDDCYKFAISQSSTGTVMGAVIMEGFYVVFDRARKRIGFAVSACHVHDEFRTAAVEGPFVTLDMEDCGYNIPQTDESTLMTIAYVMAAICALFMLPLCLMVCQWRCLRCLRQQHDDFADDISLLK

In the case of `CCC(=O)c1cc(C2(c3cccc(-c4cncnc4)c3)N=C(N)N(C)C2=O)cs1` (centres unmarked) [Example 116, 2-Amino-3-methyl-5-(5-propionyl-thiophen-3-yl)-5-(3-pyrimidin-5-yl-phenyl)-3,5-dihydro-imidazol-4-one], the melting point was in the range of 167 to 172 °C. Also, the IC50 on human BACE1 was 10 to 100 nM.

`CCC(CC)Cn1cc(C2(c3cccc(-c4cccnc4F)c3)N=C(N)N(C)C2=O)cn1` (centres unmarked) [Example 99] registered a melting point of 75 to 80 °C. Further, at human BACE1, the 50% inhibitory concentration (IC50) lay within 10 to 100 nM.

For the molecule `CCCCn1cc(C2(c3cccc(-c4cccnc4F)c3)N=C(N)N(C)C2=O)cn1` (centres unmarked) [Example 4, 2-Amino-5-(1-butyl-1H-pyrazol-4-yl)-5-[3-(2-fluoropyridin-3-VI)phenyl]-3-methyl-3,5-dihydro-4H-imidazol-4-one], the melting point lay in the range of 88 to 92 °C. The same molecule returned an IC50 on human BACE1 of 10 to 100 nM.

In turn, `COC(=O)c1cc([C@@]2(c3ccc(F)c(-c4cncnc4)c3)N=C(N)N(C)C2=O)cn1CCF` [Example 119B, Methyl 4-[(4R)2-Amino-4-(4-fluoro-3-pyrimidinyl-5-phenyl)-1-methyl-5-oxo-4,5-dihydro-1H-imidazol-4-yl]-1-(2-fluoroethyl)-1H-pyrrole-2-carboxylate] had a melting point of 186 to 188 °C. Besides, the IC50 at human BACE1 is 110 to 1000 nM.

As to `CCn1cc([C@]2(c3ccc(F)c(-c4cccnc4F)c3)N=C(N)N(C)C2=O)cc1C(=O)OC` [Example 186, Methyl 4-{(4S)-2-amino-4-[4-fluoro-3-(2-fluoropyridin-3-yl)phenyl]-1-methyl-5-oxo-4,5-dihydro-1H-imidazol-4-yl-}-ethyl-1H-pyrrole-2-carboxylate], the melting point was 114 to 117 °C. At human BACE1, this molecule showed a half-maximal inhibitory concentration (IC50) of 10 to 100 nM.

`CN1C(=O)C(c2cccc(-c3cc(F)cnc3Cl)c2)(c2cc(C#N)n(C)c2)N=C1N` (centres unmarked) [Example 227]: the melting point is greater than 225 °C. On human BACE1, the concentration for half-maximal inhibition (IC50) fell in the range of 110 to 1000 nM.

Molecule `CN1C(=O)C(c2cccc(-c3cccnc3F)c2)(c2cnn(Cc3ccccc3)c2)N=C1N` (centres unmarked) [Example 103] gave a melting point of 94 to 97 °C. In addition, the IC50 on human BACE1 was in the range of 10 to 100 nM.

For `CN1C(=O)C(c2cccc(-c3cncnc3)c2)(c2cnn(CCC3CCCCC3)c2)N=C1N` (centres unmarked) [Example 107], the melting point lay within 102 to 105 °C. Further, on human BACE1, the IC50 fell in the range of 10 to 100 nM.

`CCC(=O)c1cc(C2(c3cccc(-c4cc(F)cc(F)c4)c3)N=C(N)N(C)C2=O)cn1CC(F)(F)F` (centres unmarked) [Example 203] registered a melting point of 104 to 106 °C. The same molecule displayed an IC50 at human BACE1 of 10 to 100 nM.

For `COC(=O)c1cc(C2(c3ccc(F)c(-c4cncnc4)c3)N=C(N)N(C)C2=O)cn1CCF` (centres unmarked) [Example 118, Methyl 4-[2-Amino-4-(4-fluoro-3-pyrimidinyl-5-phenyl)-1-methyl-5-oxo-4,5-dihydro-1H-imidazol-4-yl]-1-(2-fluoroethyl)-1H-pyrrole-2-carboxylate], the melting point fell in the range of 88 to 90 °C. Also, the IC50 on human BACE1 was in the range of 10 to 100 nM.

`CC(C)n1cc(C2(c3ccc(F)c(-c4cccnc4F)c3)N=C(N)N(C)C2=O)cn1` (centres unmarked) [Example 97] registered a melting point of 115 to 117 °C. In addition, on human BACE1, the concentration for half-maximal inhibition (IC50) was 10 to 100 nM.

For `CN1C(=O)C(c2cccc(-c3cccnc3F)c2)(c2cnn(CC(F)(F)F)c2)N=C1N` (centres unmarked) [Example 69, 2-amino-5-[3-(2-fluoropyridin-3-yl)phenyl]-3-methyl-5-[1-(2,2,2-trifluoroethyl)-1H-pyrazol-4-yl]-3,5-dihydro-4H-imidazol-4-one], the melting point was 104 to 106 °C. On human BACE1, the concentration for half-maximal inhibition (IC50) was in the range of 10 to 100 nM.

In turn, `COC(=O)c1cc(C2(c3cccc(-c4cc(C#N)ccc4F)c3)N=C(N)N(C)C2=O)cn1CCF` (centres unmarked) [Example 195] registered a melting point of 147 to 150 °C. For the same molecule, at human BACE1, the IC50 is 10 to 100 nM.

Molecule `CCC(=O)c1cc(C2(c3cccc(-c4cccnc4F)c3)N=C(N)N(C)C2=O)cn1CC(C)C` (centres unmarked) [Example 179] displayed a melting point of 98 to 102 °C. Besides, at human BACE1, the 50% inhibitory concentration (IC50) lay within 10 to 100 nM.

For `CCC(=O)c1cc(C2(c3cccc(-c4cccc(C#N)c4)c3)N=C(N)N(C)C2=O)cn1CC(F)(F)F` (centres unmarked) [Example 206], the melting point lay within 112 to 114 °C. In addition, the half-inhibitory concentration (IC50) on human BACE1 lay in the range of 10 to 100 nM.

The molecule `CC(C)Cn1cc(C2(c3cccc(-c4cncnc4)c3)N=C(N)N(C)C2=O)cn1` (centres unmarked) [Example 5, 2-Amino-5-(1-isobutyl-1H-pyrazol-4-yl)-3-methyl-5-(3-pyrimidin-5-ylphenyl)-3,5-dihydro-4H-imidazol-4-one] displayed a melting point of 118 to 122 °C. The molecule also came in with an IC50 on human BACE1 of 10 to 100 nM.

`CN1C(=O)C(c2cccc(-c3cccnc3F)c2)(c2cnn(CCC(C)(C)C)c2)N=C1N` (centres unmarked) [Example 101] showed a melting point of 100 to 103 °C. For the same molecule, the half-inhibitory concentration (IC50) at human BACE1 is 10 to 100 nM.

`CCC(=O)c1cc(C2(c3cccc(-c4cccnc4F)c3)N=C(N)N(C)C2=O)cn1CCCF` (centres unmarked) [Example 152] displayed a melting point of 105 °C. This molecule displayed an IC50 on human BACE1 of 10 to 100 nM.

Regarding `CCC(=O)c1cc(C2(c3cccc(OCC(C)C)c3)N=C(N)N(C)C2=O)cn1CC` (centres unmarked) [Example 138], the melting point came to 78 °C. For the same molecule, the half-inhibitory concentration (IC50) at human BACE1 was 10 to 100 nM.

In turn, `CN1C(=O)C(c2ccc(OC(F)F)cc2)(c2cnn(CCF)c2)N=C1N` (centres unmarked) [Example 73] showed a melting point of 140 to 142 °C. The half-maximal inhibitory concentration (IC50) at human BACE1 was greater than 1000 nM.

`CCn1cc(C2(c3cccc(-c4cccnc4F)c3)N=C(N)N(C)C2=O)cc1C(=O)C1CCCCC1` (centres unmarked) [Example 171] came in with a melting point of 94 to 100 °C. For the same molecule, the IC50 at human BACE1 was 10 to 100 nM.

Take `COc1ccc(F)cc1-c1cccc(C2(c3cnn(CC(F)(F)F)c3)N=C(N)N(C)C2=O)c1` (centres unmarked) [Example 85]: the melting point lay in the range of 104 to 106 °C. Further, the 50% inhibitory concentration (IC50) on human BACE1 was in the range of 110 to 1000 nM.

As to `CCn1ccc(C2(c3cccc(-c4cncnc4)c3)N=C(N)N(C)C2=O)c1` (centres unmarked) [Example 52, 2-amino-5-(1-ethyl-1H-pyrrol-3-yl)-3-methyl-5-(3-pyrimidin-5-ylphenyl)-3,5-dihydro-4H-imidazol-4-one], the melting point lay within 100 to 102 °C. The IC50 on human BACE1 fell in the range of 110 to 1000 nM.

Consider `CN1C(=O)C(c2cccc(-c3cncnc3)c2)(c2ccn(CC(F)(F)F)c2)N=C1N` (centres unmarked) [Example 54], for which the melting point is 103 to 105 °C. On human BACE1, this molecule had an IC50 of 110 to 1000 nM.

Take `CCC(=O)c1cc(C2(c3cccc(-c4cccnc4F)c3)N=C(N)N(C)C2=O)cn1CCF` (centres unmarked) [Example 167]: the melting point was determined as 100 °C. Besides, the 50% inhibitory concentration (IC50) on human BACE1 was 10 to 100 nM.

In the case of `CCC(=O)c1cc(C2(c3cccc(OCCC(C)(C)C)c3)N=C(N)N(C)C2=O)cn1CC` (centres unmarked) [Example 134], the melting point was found to be 93 °C. Besides, the IC50 at human BACE1 lay within 110 to 1000 nM.

`CCCOc1cccc(C2(c3cccs3)N=C(N)N(C)C2=O)c1` (centres unmarked) [Example 141, 2-Amino-3-methyl-5-(3-propoxyphenyl)-5-thien-2-yl-3,5-dihydro-4H-imidazol-4-one] came in with a melting point of 79 to 81 °C. The same molecule returned an IC50 at human BACE1 of 110 to 1000 nM.

The molecule `CCn1cc(C2(c3cccc(-c4cccnc4F)c3)N=C(N)N(C)C2=O)cc1C(=O)N(C)C` (centres unmarked) [Example 165] gave a melting point greater than 200 °C. The same molecule yielded an IC50 on human BACE1 of 110 to 1000 nM.

In turn, `CCC1(c2cc(C3(c4cccc(-c5cncnc5)c4)N=C(N)N(C)C3=O)cs2)OCCO1` (centres unmarked) [Example 114] showed a melting point of 105 to 112 °C. Besides, the IC50 at human BACE1 lay in the range of 10 to 100 nM.

`COC(=O)c1cc(C2(c3cccc(-c4cc(F)cc(F)c4)c3)N=C(N)N(C)C2=O)cn1CCF` (centres unmarked) [Example 193] displayed a melting point of 173 to 176 °C. In addition, the IC50 at human BACE1 is 10 to 100 nM.

Molecule `CN1C(=O)C(c2cccc(-c3cccnc3F)c2)(c2cnn(CCF)c2)N=C1N` (centres unmarked) [Example 68, 2-amino-5-[1-(2-fluoroethyl)-1H-pyrazol-4-yl]-5-[3-(2-fluoropyridin-3-yl)phenyl]-3-methyl-3,5-dihydro-4H-imidazol-4-one] gave a melting point of 195 to 197 °C. The same molecule yielded a 50% inhibitory concentration (IC50) on human BACE1 of 10 to 100 nM.

`CCC(=O)c1cc(C2(c3cccc(-c4cccnc4F)c3)N=C(N)N(C)C2=O)cn1Cc1ccccc1` (centres unmarked) [Example 181] registered a melting point of 93 to 96 °C. The 50% inhibitory concentration (IC50) at human BACE1 lay within 10 to 100 nM.

On to `CCn1cc(C2(c3ccc(F)c(-c4cccnc4F)c3)N=C(N)N(C)C2=O)cc1S(C)(=O)=O` (centres unmarked) [Example 188, 2-Amino-5-[1-ethyl-5-(methylsulfonyl)-1H-pyrrol-3-yl]-5-[4-fluoro-3-(2-fluoropyridin-3-yl)phenyl]-3-methyl-3,5-dihydro-4H-imidazol-4-one], for which the melting point fell in the range of 193 to 195 °C. The molecule further came in with an IC50 on human BACE1 of 10 to 100 nM.

In the case of `CCC(=O)c1cc(C2(c3cccc(-c4cccc(Cl)c4)c3)N=C(N)N(C)C2=O)cn1CC(F)(F)F` (centres unmarked) [Example 204], the melting point was 108 to 110 °C. Also, the 50% inhibitory concentration (IC50) at human BACE1 was in the range of 10 to 100 nM.

Turning to `CC(C)NCc1cc(C2(c3cccc(-c4cccnc4F)c3)N=C(N)N(C)C2=O)cn1CCF` (centres unmarked) [Example 236], the melting point was 98 to 99 °C. For the same molecule, on human BACE1, the IC50 was greater than 1000 nM.

`CCCNC(=O)c1cc(C2(c3cccc(-c4cccnc4F)c3)N=C(N)N(C)C2=O)cn1CC` (centres unmarked) [Example 159] yielded a melting point of 120 to 123 °C. At human BACE1, this molecule returned an IC50 of 110 to 1000 nM.

With `CC(C)OC(=O)c1cc(C2(c3ccc(F)c(-c4cncnc4)c3)N=C(N)N(C)C2=O)cn1CCF` (centres unmarked) [Example 127], the melting point fell in the range of 167 to 170 °C. For the same molecule, the 50% inhibitory concentration (IC50) on human BACE1 was 110 to 1000 nM.

As for `CN1C(=O)C(c2ccsc2)(c2cccc(-c3cccnc3F)c2)N=C1N` (centres unmarked) [Example 34], the melting point worked out at 213 °C. The molecule also came in with an IC50 on human BACE1 of 10 to 100 nM.

In turn, `CCNC(=O)c1cc(C2(c3cccc(-c4cccnc4F)c3)N=C(N)N(C)C2=O)cn1CC` (centres unmarked) [Example 158] came in with a melting point of 132 to 135 °C. This molecule gave an IC50 at human BACE1 of 10 to 100 nM.

Turning to `CCn1cc(C2(c3cccc(-c4cccnc4F)c3)N=C(N)N(C)C2=O)cc1C(=O)NC(C)C` (centres unmarked) [Example 161], the melting point fell in the range of 121 to 123 °C. This molecule also yielded a 50% inhibitory concentration (IC50) on human BACE1 of 110 to 1000 nM.

The values are drawn from patent US7705030B2, “Amino-5-(5-membered)hetero-arylimidazolone compounds and the use thereof for β-secretase modulation” (Wyeth LLC, priority 2005, dated 2010).
